Data taken from patent publication US12024506B2, “Compounds” (Oxford University Innovation Limited, priority 2018, dated 2024).

Molecular target: T1, GST-human KRas166 (G12V) GPPNHP (Homo sapiens, UniProt P01116, G12V)
T1 construct: made in house; host or cells: E. coli C41(DE3)
Experiment: KRas small-molecule screening by SPR (Biacore T200)
Assay type: binding
Conditions: compound 100 uM, 5% DMSO buffer; immobilised GST-KRas166 (G12V) GPPNHP
Method: For SPR assays pGEX-KRAS(G12V) plasmid was transformed into E. coli C41(DE3). Bacterial cells were cultured at 37° C. to an OD600 of 0.6 and induced with IPTG (final 0.1 mM) at 18° C. over night. The GST fusion proteins were extracted from bacteria pellets after cell disruption in 140 mM NaCl, 2.7 mM KCl, 10 mM NaH2PO4, 1.8 mM KH2PO4, 1 mM EDTA, 2 mM MgCl2 pH 7.4 and purified by glutathione-sepharose column chromatography (GE Healthcare), eluting with 50 mM Tris-HCl pH8.0, 10 mM reduced glutathione, 1 mM DTT, 2 mM MgCl2. The eluted proteins were dialysed against 50 mM Tris-HCl pH8.0, 1 mM DTT, 2 mM MgCl2 and concentrated to 10 mg/ml using a Biomax-30 ULTRAFREE-15 centrifugal filter device (Millipore). Purified KRAS protein was loaded with GPPNHP as described elsewhere (Pacold et al., 2000). Loaded protein was then purified by gel filtration on a HiLoad Superdex-75 HR column (GE Healthcare) in 1×PBS pH7.4, 5 mM MgCl2 and concentrated for storage.
Protocol for KRas Small-Molecule Screening and Affinity Measurements by SPR
To a previously immobilized CM5 chip (GE Healthcare BR-1005-30) with anti GST antibody via amine coupling method, GST in channel 1 and GST-human KRas166 (G12V) GPPNHP in channel 2 were immobilised. GST was immobilised between 2,000 and 5,000 Response units. KRAS166 (G12V) was immobilized between 10,000 to 15,000 Response Units.
In a 96 well plate, compounds were diluted in […], 5 mM MgCl2 and 5% DMSO Buffer to a final concentration of 100 uM. DCAl was used as positive control. Experiment also included a solvent correction curve for 5% DMSO. Screening and evaluation of the protein immobilization and the compounds screening was done accordingly to the BIACORE T200 control and evaluation software.
Calculations for how many response units are required for a 1:1 ratio of compound/protein interaction are shown below. • Protein immobilisation: 10,000 RU; average fragment 300 Da in size. • Rmax=(MWA/MWL)×RL×SM • MWA is the molecular weight of the analyte in Da • MWL is the molecular weight of the ligand in Da • RL is the immobilization level in RU • SM is the molar stoichiometry (assume 1:1) • Rmax=300/47,500×10,000×1 • Rmax=63 RU. Cell Viability Assay protocols Assay 1

Row | SPR Response Units [Response Units] | Structure (SMILES)
1 | 10 | COc1cccc(-c2cccc3c2OCCO3)n1 [Example 1, 2-(2,3-Dihydro-benzo[1,4]dioxin-5-yl)-6-methoxy-pyridine]
2 | 17 | COc1cccc(-c2cccc3c2OC(CO)CO3)n1 (stereo not drawn) [Example 2, [8-(6-Methoxy-pyridin-2-yl)-2,3-dihydro-benzo[1,4]dioxin-2-yl]-methanol]
3 | 16 | COc1cc(N)cc(-c2cccc3c2OCCO3)n1 [Example 3, 2-(2,3-Dihydro-benzo[1,4]dioxin-5-yl)-6-methoxy-pyridin-4-ylamine]
4 | 37 | COc1cc(NC(=O)C2CCN(C)CC2)cc(-c2cccc3c2OCCO3)n1 [Example 4, 1-Methyl-piperidine-4-carboxylic acid [2-(2,3-dihydro-benzo[1,4]dioxin-5-yl)-6-methoxy-pyridin-4-yl]-amide]
5 | 84 | COc1cc(NC(=O)[C@@H]2CCNC2)cc(-c2cccc3c2OCCO3)n1 [Example 17, (R)-Pyrrolidine-3-carboxylic acid [2-(2,3-dihydro-benzo[1,4]dioxin-5-yl)-6-methoxy-pyridin-4-yl]-amide]
6 | 71 | COc1cc(NC(=O)[C@H]2CNCCO2)cc(-c2cccc3c2OCCO3)n1 [Example 18, (R)-Morpholine-2-carboxylic acid [2-(2,3-dihydro-benzo[1,4]dioxin-5-yl)-6-methoxy-pyridin-4-yl]-amide]
7 | 100 | COc1cc(NC(=O)C2CCNCC2)cc(-c2cccc3c2OCCO3)n1 [Example 19, Piperidine-4-carboxylic acid [2-(2,3-dihydro-benzo[1,4]dioxin-5-yl)-6-methoxy-pyridin-4-yl]-amide]
8 | 80 | COc1cc(NC(=O)[C@@H]2CNCCO2)cc(-c2cccc3c2OCCO3)n1 [Example 20, (S)-Morpholine-2-carboxylic acid [2-(2,3-dihydro-benzo[1,4]dioxin-5-yl)-6-methoxy-pyridin-4-yl]-amide]
9 | 66 | COc1cc(NC(=O)[C@H]2CC[C@@H](N)CC2)cc(-c2cccc3c2OCCO3)n1 [Example 21, 4-Amino-cyclohexanecarboxylic acid [2-(2,3-dihydro-benzo[1,4]dioxin-5-yl)-6-methoxy-pyridin-4-yl]-amide]
10 | 55 | COc1cc(NC(=O)N(C)C2CCN(C)CC2)cc(-c2cccc3c2OCCO3)n1 [Example 22, 3-[2-(2,3-Dihydro-benzo[1,4]dioxin-5-yl)-6-methoxy-pyridin-4-yl]-1-methyl-1-(1-methyl-piperidin-4-yl)-urea]
11 | 58 | COc1cc(NC(=O)N2CCN(C)CC2)cc(-c2cccc3c2OCCO3)n1 [Example 23, 4-Methyl-piperazine-1-carboxylic acid [2-(2,3-dihydro-benzo[1,4]dioxin-5-yl)-6-methoxy-pyridin-4-yl]-amide]
12 | 58 | COc1cccc(-c2cccc3c2OC(CNCC2CCN(C)CC2)CO3)n1 (stereo not drawn) [Example 27, [8-(6-Methoxy-pyridin-2-yl)-2,3-dihydro-benzo[1,4]dioxin-2-ylmethyl]-(1-methyl-piperidin-4-ylmethyl)-amine]
13 | 28 | COc1cccc(-c2cccc3c2OC(CNCc2cccnc2)CO3)n1 (stereo not drawn) [Example 28, [8-(6-Methoxy-pyridin-2-yl)-2,3-dihydro-benzo[1,4]dioxin-2-ylmethyl]-pyridin-3-ylmethyl-amine]
14 | 14 | COc1cccc(-c2cccc3c2OC(CNCC2CCOCC2)CO3)n1 (stereo not drawn) [Example 29, [8-(6-Methoxy-pyridin-2-yl)-2,3-dihydro-benzo[1,4]dioxin-2-ylmethyl]-(tetrahydro-pyran-4-ylmethyl)-amine]
15 | 26 | COc1cccc(-c2cccc3c2OC(CNCC2CCN(C(=O)c4cnccn4)CC2)CO3)n1 (stereo not drawn) [Example 29a, [4-({[8-(6-Methoxy-pyridin-2-yl)-2,3-dihydro-benzo[1,4]dioxin-2-ylmethyl]-amino}-methyl)-piperidin-1-yl]-pyrazin-2-yl-methanone]
16 | 42 | COc1cccc(-c2cccc3c2OC(CNCC2CCN(C(=O)C4CCOCC4)CC2)CO3)n1 (stereo not drawn) [Example 30, [4-({[8-(6-Methoxy-pyridin-2-yl)-2,3-dihydro-benzo[1,4]dioxin-2-ylmethyl]-amino}-methyl)-piperidin-1-yl]-(tetrahydro-pyran-4-yl)-methanone]
17 | 37 | COc1cccc(-c2cccc3c2OC(CN2C(=O)NC4(CCN(C)CC4)C2=O)CO3)n1 (stereo not drawn) [Example 34, 3-[8-(6-Methoxy-pyridin-2-yl)-2,3-dihydro-benzo[1,4]dioxin-2-ylmethyl]-8-methyl-1,3,8-triaza-spiro[4.5]decane-2,4-dione]
18 | 33 | COc1cccc(-c2cccc3c2OC(CN2C(=O)NC(C)(C)C2=O)CO3)n1 (stereo not drawn) [Example 35, 3-[8-(6-Methoxy-pyridin-2-yl)-2,3-dihydro-benzo[1,4]dioxin-2-ylmethyl]-5,5-dimethyl-imidazolidine-2,4-dione]
19 | 58 | COc1ccc(N2CC(=O)N(CC3COc4cccc(-c5cccc(OC)n5)c4O3)C2=O)cn1 (stereo not drawn) [Example 36, 1-(6-Methoxy-pyridin-3-yl)-3-[8-(6-methoxy-pyridin-2-yl)-2,3-dihydro-benzo[1,4]dioxin-2-ylmethyl]-imidazolidine-2,4-dione]
20 | 31 | COc1cccc(-c2cccc3c2OC(CN2C(=O)CN(C4CCNCC4)C2=O)CO3)n1 (stereo not drawn) [Example 37, 3-[8-(6-Methoxy-pyridin-2-yl)-2,3-dihydro-benzo[1,4]dioxin-2-ylmethyl]-1-piperidin-4-yl-imidazolidine-2,4-dione]
21 | 62 | CN1CCN(Cc2ccc(C(=O)NCC3COc4cccc(-c5ccn[nH]5)c4O3)o2)CC1 (stereo not drawn) [Example 42, 5-(4-Methyl-piperazin-1-ylmethyl)-furan-2-carboxylic acid [8-(2H-pyrazol-3-yl)-2,3-dihydro-benzo[1,4]dioxin-2-ylmethyl]-amide]
22 | 42 | COc1cccc(-c2cccc3c2O[C@@H](CNC(=O)c2ccc(CN4CCN(C)CC4)o2)CO3)n1 [Example 44, 5-(4-Methyl-piperazin-1-ylmethyl)-furan-2-carboxylic acid [(S)-8-(6-methoxy-pyridin-2-yl)-2,3-dihydro-benzo[1,4]dioxin-2-ylmethyl]-amide]
23 | 12 | COc1cccc(-c2cccc3c2OC(CNC(=O)C2CCOCC2)CO3)n1 (stereo not drawn) [Example 45, Tetrahydro-pyran-4-carboxylic acid [8-(6-methoxy-pyridin-2-yl)-2,3-dihydro-benzo[1,4]dioxin-2-ylmethyl]-amide]
24 | 90 | COc1ccc(-c2cccc3c2OC(CNC(=O)c2ccc(CN4CCN(C)CC4)o2)CO3)cn1 (stereo not drawn) [Example 45a, 5-(4-Methyl-piperazin-1-ylmethyl)-furan-2-carboxylic acid [8-(6-methoxy-pyridin-3-yl)-2,3-dihydro-benzo[1,4]dioxin-2-ylmethyl]-amide]
25 | 16 | COc1cccc(-c2cccc3c2OC(CNC(=O)CCN(C)C)CO3)n1 (stereo not drawn) [Example 47, 3-Dimethylamino-N-[8-(6-methoxy-pyridin-2-yl)-2,3-dihydro-benzo[1,4]dioxin-2-ylmethyl]-propionamide]
26 | 54 | COc1cccc(-c2cccc3c2O[C@H](CNC(=O)C2CCN(Cc4cnccn4)CC2)CO3)n1 [Example 48, 1-Pyrazin-2-ylmethyl-piperidine-4-carboxylic acid [(R)-8-(6-methoxy-pyridin-2-yl)-2,3-dihydro-benzo[1,4]dioxin-2-ylmethyl]-amide]
27 | 14 | COc1cccc(-c2cccc3c2OC(CNC(=O)C2CCN(C)CC2)CO3)n1 (stereo not drawn) [Example 50, 1-Methyl-piperidine-4-carboxylic acid [8-(6-methoxy-pyridin-2-yl)-2,3-dihydro-benzo[1,4]dioxin-2-ylmethyl]-amide]
